Experimental data from patent publication US20120041065A1, “LAURIC ACID DISTILLATE FOR ANIMAL FEED” (CAN TECHNOLOGIES, INC., priority 2010, published 2012).

Legend:
[1] = tested on: male broiler chickens (Ross 708); details: in vivo
grow-finish pigs = assay: Fifth study: growth performance of grow-finish pigs fed HLAD, LA or BMD; details: P<0.05
[2] = tested on: male broiler chickens (Ross 708); assay: First study: growth performance and carcass evaluation in broilers fed HPKFAD or LA
[3] = tested on: broilers challenged with coccidian vaccine and Clostridium Perfringens; format: in vivo; details: versus negative control; throughout the study
[4] = tested on: broilers challenged with coccidia and Clostridia perfringens; format: in vivo
[5] = tested on: pigs (initial BW of 9.98 lbs); assay: Fourth study: nursery pig challenge model (dirty room) with LAD, Mecadox, calsporin; format: in vivo; details: severely challenged pigs; d 0 to 40
Protocol: A total of 96 pigs (initial BW of 9.98 lbs) were allotted to one of 8 treatments (12 replicates per treatment with 1 pigs per replicate). The treatments were 1) a negative control (NC) diet with no antibiotic (Ab), 2) a control diet with an Ab (Mecadox), 3) a diet with LAD at 0.25%, 4) a diet with LAD at 0.5%, 5) a diet with LAD at 1%, 6) a diet with calsporin, 7) a diet with calsporin and LAD at 1%, 8) and a diet with calsporin and LAD at 0.5%. Feed intakes and body weights were determined at the end of each feeding phase. […] Also, ZnO and CuSO4 were not added into the diet to enhance the challenge. The feeding phases were from d 0 to […], d 11 to 20, d 20 to 40. The data, especially from Phase 1 and 2, illustrated the pigs were severely challenged in this trial, which enhanced the effect of the antibiotic. […] The optimum level of LAD was 0.25% for the early growth period and increased to 0.50% for the later growth period. Accordingly, the recommended level of HLAD to be fed to nursery pigs is between 0.25% and 0.5%.

[6] = tested on: broilers challenged with coccidian vaccine and Clostridium Perfringens; format: in vivo; details: diets that contained papain relative to any other diet; P<0.05

Molecule: CCCCCCCCCCCC(=O)O [LA, lauric acid]
- Removed Animals (Adverse Event), overall proportion of animals removed [1]: no differences
- ADFI, Phase 3 (grow-finish pigs; LA at 0.1% relative to control diet or HLAD at 0.4%): decreased
- overall ADFI ([2]; LA 0.1% versus negative control, P=0.166): numerically lower but not statistically significant
- overall ADG ([2]; LA included at 0.2 and 0.4%, P 0.038): decline in overall ADG
- breast and leg yield ([2]; LA treatments): did not so such an increase
- overall feed efficiency, dose response ([2]; across inclusion levels, P<0.001): significant linear and plateau responses
- overall ADFI ([2]; all non-zero LA treatments except 0.1% versus negative control): decrease
- overall ADFI ([2]; all non-zero treatments versus negative control, P 0.045): decrease
- overall feed efficiency ([2]; included at 0.4 and 0.8% compared to negative control, P>0.016 as printed): improved
- Average Hot Carcass Weight ([2]; non-zero treatments versus control, P≧0.111): no differences
- Average Breast Weight ([2]; non-zero treatments versus control, P≧0.236): no treatment differences
- Average Leg Weight ([2]; non-zero treatments versus control, P≧0.267): no treatment differences
- Percent Leg Yield ([2]; other HPKFAD and LA treatment comparisons, P≧0.195): No other treatment differences
- Percent Breast Yield ([2]; other HPKFAD and LA treatment comparisons, P≧0.404): No other treatment differences

Molecule: bacitracin methylene disalicylate [BMD]
- performance [3]: tended to have improved performance
- performance ([4]; BMD): only tended to improve performance
- feed intake, day 7 ([4]; BMD relative to any other dietary treatment, P<0.05): higher
- Feed efficiency, Phase 2 (grow-finish pigs; antibiotic relative to LA at 0.1% or HLAD at 0.4%): increased

Molecule: COC(=O)N/N=C/c1c[n+]([O-])c2ccccc2[n+]1[O-] [Mecadox]
- performance (feed intakes and body weights) [5]: improved performance

B1: papain: protease fed alone and in combination with hydrolyzed lauric acid (protein, UniProt P00784 134-345, looked up)
Papain: IPEYVDWRQKGAVTPVKNQGSCGSCWAFSAVVTIEGIIKIRTGNLNEYSEQELLDCDRRSYGCNGGYPWSALQLVAQYGIHYRNTYPYEGVQRYCRSREKGPYAAKTDGVRQVQPYNEGALLYSIANQPVSVVLEAAGKDFQLYRGGIFVGPCGNKVDHAVAAVGYGPNYILIKNSWGTGWGENGYIRIKRGTGNSYGVCGLYTSSFYPVKN
- ADG [6]: decreased
- Feed intake [6]: decreased
